Where two headings read alike, the source gives them in different places.
Experiments:
PC-3 Cell line = experiment: MTT cell proliferation assay, PC-3; type: cell-based; details: Homo sapiens, PC-3, 120 h, 5 days
Protocol: (§1) Human breast cancer cell lines MDAMB231, MFC-7 and human prostate carcinoma cell line PC-3 were obtained from European Collection of Cell Cultures (ECACC). Cells were grown in […] medium supplemented with 10% fetal bovine serum (FBS), penicillin (100 units/ml), streptomycin (100 μg/ml), L-glutamine (0.3 mg/ml), sodium pyruvate ([…]), and NaHCO3 (2 mg/ml). Cells were grown in CO2 incubator (Thermocon Electron Corporation, USA) at 37° C. in an atmosphere of 95% air and 5% CO2 with 98% humidity. Different molecules were dissolved in DMSO and were delivered to cell cultures in complete medium.
(§2) MTT assay was done to determine the viability of the cells and was done as described previously (Kumar et al, 2013). Briefly, 6×10^3 were seeded in 96 well plates and were treated with different concentrations of different molecules for 5 days. 20 μl of MTT dye (2.5 mg/ml) was added 3 h before the termination of the experiment. Formazen crystals were dissolved in 150 μl of DMSO and OD was measured at 570 nm.

MDA-MB231 Cell line = experiment: MTT cell proliferation assay, MDA-MB231; type: cell-based; details: Homo sapiens, MDA-MB-231, 120 h, 5 days
Protocol: as §1, §2

MCF-7 Cell line = experiment: MTT cell proliferation assay, MCF-7; type: cell-based; details: Homo sapiens, MCF7, 120 h, 5 days
Protocol: as §1, §2

PI3K alpha = PI3K alpha (Homo sapiens, UniProt P42336); experiment: PI3K-α assay (ADP-Glo enzyme inhibition); type: biochemical; details: at 500 nm
Sequence of PI3K alpha (P42336 whole entry, species assumed): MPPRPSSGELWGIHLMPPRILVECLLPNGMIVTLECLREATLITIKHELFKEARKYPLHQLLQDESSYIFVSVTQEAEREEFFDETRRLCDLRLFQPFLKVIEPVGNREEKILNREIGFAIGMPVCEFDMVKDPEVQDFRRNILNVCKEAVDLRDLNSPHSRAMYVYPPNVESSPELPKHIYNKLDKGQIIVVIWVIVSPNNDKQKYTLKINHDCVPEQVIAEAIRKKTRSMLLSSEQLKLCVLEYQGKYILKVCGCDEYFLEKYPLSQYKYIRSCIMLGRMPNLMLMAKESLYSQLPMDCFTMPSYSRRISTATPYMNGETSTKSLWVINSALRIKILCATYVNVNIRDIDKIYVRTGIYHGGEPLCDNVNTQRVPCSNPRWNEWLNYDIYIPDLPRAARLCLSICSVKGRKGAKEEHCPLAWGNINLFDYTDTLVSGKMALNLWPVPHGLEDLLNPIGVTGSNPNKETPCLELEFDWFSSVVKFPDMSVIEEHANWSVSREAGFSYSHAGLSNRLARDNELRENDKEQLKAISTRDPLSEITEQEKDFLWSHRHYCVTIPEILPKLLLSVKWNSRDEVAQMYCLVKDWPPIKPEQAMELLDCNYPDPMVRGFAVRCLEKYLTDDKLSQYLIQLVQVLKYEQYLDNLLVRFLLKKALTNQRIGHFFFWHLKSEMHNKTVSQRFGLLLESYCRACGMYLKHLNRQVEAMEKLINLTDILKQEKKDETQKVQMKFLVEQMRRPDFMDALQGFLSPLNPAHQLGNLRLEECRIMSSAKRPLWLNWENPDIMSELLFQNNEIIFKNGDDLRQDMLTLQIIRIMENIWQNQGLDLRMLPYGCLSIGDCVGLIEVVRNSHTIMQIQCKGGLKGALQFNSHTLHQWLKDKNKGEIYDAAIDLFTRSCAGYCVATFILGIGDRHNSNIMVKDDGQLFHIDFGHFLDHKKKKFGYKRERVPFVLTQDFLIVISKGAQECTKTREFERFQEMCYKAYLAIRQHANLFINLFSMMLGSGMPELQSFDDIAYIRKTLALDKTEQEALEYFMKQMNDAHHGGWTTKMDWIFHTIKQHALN
Sequence of PI3K alpha (P27986 whole entry partner, species assumed): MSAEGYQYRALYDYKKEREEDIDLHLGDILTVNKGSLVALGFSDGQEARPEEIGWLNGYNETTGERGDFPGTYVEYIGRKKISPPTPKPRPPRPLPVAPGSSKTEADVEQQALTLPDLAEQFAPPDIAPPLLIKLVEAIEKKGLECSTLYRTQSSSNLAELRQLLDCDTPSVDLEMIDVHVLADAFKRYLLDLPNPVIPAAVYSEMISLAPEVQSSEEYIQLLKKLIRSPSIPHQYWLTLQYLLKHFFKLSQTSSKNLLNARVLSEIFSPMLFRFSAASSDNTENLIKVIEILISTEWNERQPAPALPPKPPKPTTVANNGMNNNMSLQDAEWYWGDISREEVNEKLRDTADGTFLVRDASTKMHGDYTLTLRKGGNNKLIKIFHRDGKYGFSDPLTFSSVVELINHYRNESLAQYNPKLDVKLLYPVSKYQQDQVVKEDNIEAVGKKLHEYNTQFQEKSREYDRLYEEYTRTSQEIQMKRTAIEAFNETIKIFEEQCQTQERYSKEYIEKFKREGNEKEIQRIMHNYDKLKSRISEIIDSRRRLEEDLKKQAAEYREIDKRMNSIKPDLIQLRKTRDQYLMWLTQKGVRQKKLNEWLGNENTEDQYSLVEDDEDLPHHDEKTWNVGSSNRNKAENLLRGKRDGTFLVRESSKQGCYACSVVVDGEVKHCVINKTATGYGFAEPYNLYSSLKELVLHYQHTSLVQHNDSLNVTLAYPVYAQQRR
Protocol: Compounds were evaluated for their ability to inhibit class I PI3-kinase enzyme alpha as given below. PI3K-α Assay: PI3K alpha (diluted in 12.5 mM Glycine-NaOH (pH 8.5), 50 mM KCl, 2.5 mM MgCl2, 1 mM DTT, 0.05% CHAPS) is assayed in total volume of 20 ul containing 12.5 mM glycine-NaOH (pH 8.5), 50 mM KCl, 2.5 mM MgCl2, 1 mM DTT, 0.05% CHAPS, 0.01 mM ATP and 0.05 mM diC8 PIP2. The enzyme is assayed for 80 min after which 20 ul of ADP-Glo reagent is added. After a further incubation of 40 min, 40 ul of Kinase Detection Buffer is added. The assays are incubated for 40 min and then read on PerkinElmer Envision for 1 sec/well.

[1] = read-out: In vitro PI3K α % of inhibition
[2] = read-out: inhibition against PI3K alpha

inhibition at 0.5 µM (PI3K alpha; [1])	inhibition at 0.5 µM (PI3K alpha; [2])	SMILES	inhibition at 10 µM (PC-3 Cell line)	inhibition at 10 µM (MDA-MB231 Cell line)	inhibition at 10 µM (MCF-7 Cell line)	In vitro PI3K α % of inhibition (PI3K alpha)
> 70%	> 70%	O=C(N(c1ccc(F)cc1)c1nc(N2CCOCC2)nc(N2CCC(Oc3ccccc3)CC2)n1)C(F)(F)F [1A5, 2,2,2-trifluoro-N-(4-fluorophenyl)-N-(4-morpholino-6-(4-phenoxypiperidin-1-yl)-1,3,5-triazin-2-yl)acetamide]	> 50%	30 to 50%	30 to 50%	
> 70%	> 70%	O=C(N(c1ccccc1)c1nc(N2CCOCC2)nc(N2CCC(Oc3ccc(OC(F)(F)F)cc3)CC2)n1)C(F)(F)F [1A9, 2,2,2-trifluoro-N-(4-morpholino-6-(4-(4-(trifluoromethoxy)phenoxy)piperidin-1-yl)-1,3,5-triazin-2-yl)-N-phenylacetamide]	30 to 50%	> 50%	> 50%	
> 70%	> 70%	Fc1ccc(OC2CCN(c3nc(N4CCOCC4)nc(-n4c(C(F)F)nc5ccccc54)n3)CC2)cc1 [1B1, 4-(4-(2-(difluoromethyl)-1H-benzo[d]imidazol-1-yl)-6-(4-(4-fluorophenoxy)piperidin-1-yl)-1,3,5-triazin-2-yl)morpholine]	> 50%	> 50%	> 50%	
50 to 70%		COc1ccc(OC2CCN(c3nc(N4CCOCC4)nc(-n4c(C(F)F)nc5ccccc54)n3)CC2)cc1 [1B2, 4-(4-(2-(difluoromethyl)-1H-benzo[d]imidazol-1-yl)-6-(4-(4-methoxyphenoxy)piperidin-1-yl)-1,3,5-triazin-2-yl)morpholine]	30 to 50%	> 50%	> 50%	
50 to 70%		FC(F)c1nc2ccccc2n1-c1nc(N2CCOCC2)nc(N2CCC(Oc3ccc(Cl)cc3)CC2)n1 [1B5, 4-(4-(4-(4-chlorophenoxy)piperidin-1-yl)-6-(2-(difluoromethyl)-1H-benzo[d]imidazol-1-yl)-1,3,5-triazin-2-yl)morpholine]		30 to 50%	> 50%	
50 to 70%		FC(F)c1nc2ccccc2n1-c1nc(N2CCOCC2)nc(N2CCC(Oc3ccccc3Cl)CC2)n1 [1B7, 4-(4-(4-(2-chlorophenoxy)piperidin-1-yl)-6-(2-(difluoromethyl)-1H-benzo[d]imidazol-1-yl)-1,3,5-triazin-2-yl)morpholine]		30 to 50%	> 50%	
> 70%	> 70%	Cc1cccc(OC2CCN(c3nc(N4CCOCC4)nc(-n4c(C(F)F)nc5ccccc54)n3)CC2)c1 [1B11, 4-(4-(2-(difluoromethyl)-1H-benzo[d]imidazol-1-yl)-6-(4-(m-tolyloxy)piperidin-1-yl)-1,3,5-triazin-2-yl)morpholine]	> 50%	30 to 50%		
> 70%	> 70%	Cc1ccccc1OC1CCN(c2nc(N3CCOCC3)nc(-n3c(C(F)F)nc4ccccc43)n2)CC1 [1B12, 4-(4-(2-(difluoromethyl)-1H-benzo[d]imidazol-1-yl)-6-(4-(o-tolyloxy)piperidin-1-yl)-1,3,5-triazin-2-yl)morpholine]	30 to 50%	30 to 50%	> 50%	
> 70%	> 70%	COc1ccc(NC2CCN(c3nc(N4CCOCC4)nc(-n4c(C(F)F)nc5ccccc54)n3)CC2)cc1 [1B24, 1-(4-(2-(difluoromethyl)-1H-benzo[d]imidazol-1-yl)-6-morpholino-1,3,5-triazin-2-yl)-N-(4-methoxyphenyl)piperidin-4-amine]		30 to 50%		
> 70%	> 70%	FC(F)c1nc2ccccc2n1-c1nc(N2CCOCC2)nc(N2CCC(Nc3ccc(Cl)c(Cl)c3)CC2)n1 [1B26, N-(3,4-dichlorophenyl)-1-(4-(2-(difluoromethyl)-1H-benzo[d]imidazol-1-yl)-6-morpholino-1,3,5-triazin-2-yl)piperidin-4-amine]	30 to 50%	> 50%	> 50%	
50 to 70%		Fc1ccccc1NC1CCN(c2nc(N3CCOCC3)nc(-n3c(C(F)F)nc4ccccc43)n2)CC1 [1B27, 1-(4-(2-(difluoromethyl)-1H-benzo[d]imidazol-1-yl)-6-morpholino-1,3,5-triazin-2-yl)-N-(2-fluorophenyl)piperidin-4-amine]	30 to 50%	30 to 50%	> 50%	
50 to 70%		Cc1ccc(NC2CCN(c3nc(N4CCOCC4)nc(-n4c(C(F)F)nc5ccccc54)n3)CC2)cc1 [1B30, 1-(4-(2-(difluoromethyl)-1H-benzo[d]imidazol-1-yl)-6-morpholino-1,3,5-triazin-2-yl)-N-(p-tolyl)piperidin-4-amine]	30 to 50%	30 to 50%	> 50%	
50 to 70%		Cc1ccccc1NC1CCN(c2nc(N3CCOCC3)nc(-n3c(C(F)F)nc4ccccc43)n2)CC1 [1B32, 1-(4-(2-(difluoromethyl)-1H-benzo[d]imidazol-1-yl)-6-morpholino-1,3,5-triazin-2-yl)-N-(o-tolyl)piperidin-4-amine]	30 to 50%	30 to 50%	> 50%	
		FC(F)c1nc2ccccc2n1-c1nc(N2CCOCC2)nc(N2CCOCC2)n1 [ZSTK474, reference compound]	> 50%	> 50%	> 50%	++ (++ indicates greater than 70% of inhibition)

Source: patent publication US9951040B2, “1,3,5 -triazine based PI3K inhibitors as anticancer agents and a process for the preparation thereof” (Council of Scientific and Industrial Research, priority 2014, dated 2018)
